According to patent US6372723B1, “Compositions and methods for preventing restenosis following revascularization procedures” (Discovery Therapeutics, Inc., priority 1997, dated 2002):

How the values were obtained:
[1] = tested on: rabbits with focal femoral atherosclerosis (arterial stenosis); assay: Restenosis after balloon angioplasty in rabbits with focal femoral atherosclerosis; assay type: in vivo; conditions: rabbit
Protocol: Focal femoral atherosclerosis is induced in rabbits by air desiccation endothelial injury followed by a 2% cholesterol, 6% peanut oil diet for one month. The degree of arterial stenosis is assessed angiographically. At this time, balloon angioplasty is performed using a 2.5 mm balloon, which is inserted into the region of stenosis and inflated with three 60-second, 10-atmosphere inflations 60 seconds apart. This procedure is similar to that used in humans for clearing coronary blood vessels. Rabbits receive an intravenous infusion of 2-cyclohexylmethylenehydrazinoadenosine (0.6 μg/kg/min) or vehicle starting 10 minutes before the angioplasty procedure and continuing for 1 day following angioplasty. Angiograms are performed before and after angioplasty and at 28 days after angioplasty. These angiograms are analyzed quantitatively for decrease of arterial stenosis. Rabbits are sacrificed 28 days following angioplasty and arteries are analyzed histopathologically and morphometrically.
Example 1 is followed, with the exception that one rabbit group is treated with an effective amount of a combination of (±)-N^6-endonorboman-2-yl-9-methyladenine (0.25 mg/kg/min) and 5′-N-ethylcarboxamidoadenosine (6 μg/kg/min) instead of 2-cyclohexylmethylenehydrazinoadenosine. […]

[2] = tested on: platelets and neutrophils; assay: In vivo activation of neutrophils and platelets after balloon angioplasty, flow cytometry of coronary sinus blood; parameters: species or system human; conditions: humans, i.v. infusion 0.6 μg/kg/min from 10 min before to 1 day after angioplasty
Protocol: Humans are subjected to balloon angioplasty, and receive either an intravenous infusion of 2-cyclohexylmethylenehydrazinoadenosine (0.6 μg/kg/min) or vehicle starting 10 minutes before the angioplasty procedure and continuing for 1 day following angioplasty. In vivo activation of neutrophils and platelets are measured by taking a blood sample from the coronary sinus and measuring the expression of surface adhesion molecules on platelets and neutrophils by flow cytometry.

[3] = tested on: humans with stenotic arteries (restenosis); assay: Incidence of restenosis by angiography six months after balloon angioplasty; assay type: in vivo, human; conditions: i.v. infusion 0.6 μg/kg/min from 10 min before to 1 day after angioplasty
Protocol: Humans afflicted with impaired blood flow due to stenotic arteries are subjected to balloon angioplasty, and receive either an intravenous infusion of 2-cyclohexylmethylenehydrazinoadenosine (0.6 μg/kg/min) or vehicle starting 10 minutes before the angioplasty procedure and continuing for 1 day following angioplasty. Six months following the balloon angioplasty procedure, angiography is performed on these subjects to examine the blood vessel subjected to the angioplasty.

Row | SMILES | degree of arterial stenosis vs vehicle group ([1]; A1 antagonist alone 0.25 μg/kg/min, as Example 1) | neutrophils that express surface adhesion molecules vs vehicle group [2] | platelets that express surface adhesion molecules vs vehicle group [2] | incidence of restenosis vs vehicle group [3] | degree of arterial stenosis vs vehicle group ([1]; i.v. infusion 0.6 μg/kg/min from 10 min before to 1 day after angioplasty, assessed 28 days after angioplasty)
1 | Cn1cnc2c(N[C@@H]3C[C@@H]4CC[C@H]3C4)ncnc21 (racemic) [(±)-N^6-endonorbornan-2-yl-9-methyladenine, reference compound] | significantly less | – | – | – | –
2 | Nc1nc(NN=CC2CCCCC2)nc2c1ncn2[C@@H]1O[C@H](CO)[C@@H](O)[C@H]1O [2-cyclohexylmethylenehydrazinoadenosine] | – | significantly fewer | significantly fewer | significantly less | significantly less
